Measured values taken from US10870618B2, “Histone deacetylase inhibitors and uses thereof” (MUSC FOUNDATION FOR RESEARCH DEVELOPMENT, priority 2016, dated 2020).
“And” between values parts separate entries of the source, which are not always exact repeats. Identical values can stand only once. “Also recorded” adds a separate entry of the source.

Key:
[1] = In vivo PK, plasma concentration via LC-MS/MS; design: species or system mice
Description: The PK parameters were analyzed. The area under the plasma concentration versus time curve (AUC) is calculated using the linear trapezoidal method. The PK data were fitted to obtain PK parameters using the non-compartmental method.
LP-411 in vivo PK. a. Semi-log PK profiles for […] at 20 mg/kg (n=3) determined through a 24 hr period. b.

[2] = Stability in artificial gastric and intestinal juice and human serum; assay type: in vitro ADME; conditions: over 8 hours
[3] = ESI-LCMS glucuronidation assay; assay type: in vitro ADME, human; conditions: 2,2,2-trifluoroacetate
Description: Mixed gender pooled Human Liver Microsomes (HLMs) were purchased from Xenotech, Lot#H0160. A buffer solution containing 100 mM Tris HCl buffered to a pH of 7.5 at 37° C. was used to dilute HLMs to a concentration of 250 μg/mL. To this solution was added 1 μg/mL (final) of alamethicin and 5 mM MgCl2 (final). This solution was rocked gently at 4° C. for 15 minutes to allow pore formation. 180 μL of this solution was added to 10 μL of 5 mM inhibitor+10 μL of 50 mM UDPGA in H2O or just 10 μL H2O. This solution was gently rocked at 37° C. for 12 hours before being quenched with a 47:50:3 (v/v/v) solution of water, acetonitrile and formic acid. After a 15 minute centrifugation at 15000G in 37° C. conditions, 20 μL of supernatant was directly injected into Thermo LTQ Fleet LCMS.
An Accucore RP-MS HPLC Column, 2.6 […], 30×4.6 mm was used throughout these assays. Water and methanol with 0.1% (v/v) formic acid were used as mobile phase. A gradient of 10% methanol 90% water was run isocratically for 2 minutes at […]. The gradient then changed to 100% methanol over 10 minutes before returning to 10% methanol 90% water over the next three minutes. Capillary temperature was 350° C., with a spray voltage of 5 kV.

AML cell lines = experiment: AML / leukemia cell toxicity; assay type: cell-based
Description: MV4-11 cells were purchased from ATCC. The cells were grown according to ATCC protocol in Iscove's Modified Deulbecco's Medium with 10% Fetal Bovine Serum. Cells were grown in 37° C. environments with 5% CO2. Cells were plated at 20 k cells/well in 96-well clear U-bottom plates and pre-incubated for 24 hours. Addition of serially diluted inhibitor (in medium) was performed followed by 48 hours of additional incubation. Addition of CellTiter-Blue occurred to a final concentration of 0.125 mg/mL. The mixture was allowed to incubate until sufficient color changed occurred. Cell viability was measured as a function of resorfuin intensity using a Tecan M200 Pro spectrophotometer, 560 nm (ex.)/590 nm (em.). […] EC50's were determined using GraphPad Prism's built in “log(inhibitor) vs. normalized response—Variable slope” function.
Hek293 cells were purchased from ATCC. Cells were grown as described above. Cells were plated at 20 k cells/well in 96-well clear U-bottom plates and pre-incubated for 24 hours. […] Cell viability was measured as a function of resorufin intensity using a Tecan M200 Pro spectrophotometer, 560 nm (ex.)/590 nm (em.).
Human PBMCs were graciously donated from Dr. Nathan Dolloff s laboratory. […] Cell viability was measured as a function of resorufin intensity using a Tecan M200 Pro spectrophotometer, 560 nm (ex.)/590 nm (em.).

[4] = system: melanoma and renal cancer; experiment: Cell line efficacy, melanoma and renal cancer growth; assay type: cell-based; conditions: melanoma and renal cancer cell lines
From the text: Percent growth below zero indicates the treatment has selective lethality to the cancer cells.

MV4-11 cells [5] = experiment: Western blot analysis of MV4-11 cells; assay type: cell-based
Description: MV4-11 cells were cultured as described above. Cells were plated at 500 k cells/mL×3 mLs in clear, flat bottom 6 well plates. Cells were pre-incubated for 24 hours before addition of inhibitor at various concentrations. […] Cell pellets were lysed with RIPA buffer. RIPA buffer is comprised of 50 mM Tris Base, 150 mM NaCl, 5 mM EDTA, 0.1% (v/v) SDS, 0.5% (v/v) Sodium Deoxycholate, and 1% (v/v) Triton-x-100. After lysing, the suspension is ultra-sonicated and centrifuged at 15000 RPM for 15 minute at 4° C. 80 μL of supernatant was mixed with 40 μL of 15:85 (v/v) 3-mercaptoethanol:LDS solution. The mixture was heated at 90° C. for 15 minutes and stored for loading at −20° C. Prior to loading, the solution was flash thawed at 90° C. Lysates were run on Invitrogen NuPAGE 4-12% Bis-Tris 15 well gels at 170V for approximately 60 minutes in MES buffer. Gels were transferred to […] and ran at 30V for 180 minutes. Primary antibodies, purchased from Santa Cruz Biotechnology, were added in 5% (w/v) milk or 5% (w/v) Bovine Serum Albumin fraction V. The antibody was incubated with cellulose overnight at 4° C. before addition of secondary antibody in 5% (w/v) milk or 5% (w/v) Bovine Serum Albumin. Images were read using a GE ImageQuant LAS 4000. Global lighting adjustments of resulting images were made using Adobe Photoshop CC. Quantification was performed using Image Studio Lite 4.0.

MV4-11 cells [6] = experiment: Pulse treatment of MV4-11 cells, cell death; assay type: cell-based; conditions: 2 hr treatment (200 nM), removal of inhibitor, 24 hr incubation
[7] = system: Raw246.7 macrophage cells; experiment: NO production in activated macrophages; assay type: cell-based; conditions: 100 nM, LPS and LPS+ATP
From the text: Hypo-acetylation of histone H3 and H4 were also reversed with HDAC inhibitor treatments (yellow dash box). d.

class I HDACs = experiment: Class I HDAC inhibition (FIG. 7a); assay type: biochemical
Description: All Treatments are at 100 nM inhibitor concentration.

What does the source list for `CCCNNC(=O)/C=C/c1ccc(CNCCc2c(C)[nH]c3ccccc23)cc1` [LP-97, (E)-2-(2-methyl-1H-indol-3-yl)-N-(4-(3-oxo-3-(2-propylhydrazinyl)prop-1-en-1-yl)benzyl)ethan-1-aminium 2,2,2-trifluoroacetate]?
Cmax relative to panobinostat ([1]; 20 mg/Kg I.P.): about 5 times; t1/2 ([1]; in vivo, 20 mg/kg, plasma): 6.07 h; half-life ([1]; mouse, intraperitoneal, in vivo, 20 mg/kg, plasma): 6.07 h; Cmax ([1]; mouse, plasma, ip, 20 mg/kg I.P.): 559 ng/mL and 1.5 µM; degradation in artificial gastric and intestinal juice and human serum [2]: no appreciable degradation; glucuronidation by human liver microsomes [3]: resistance to glucuronidation; also recorded: resistant to glucuronidation; toxicity against wt-p53 versus p53-null and mutants (AML cell lines; n=3): selective toxicity; effective concentration against multiple AML cell lines (AML cell lines; wild-type p53 leukemia cell lines): < 100 nM; growth inhibition concentration [4]: below 100 nM; total growth inhibition concentration [4]: 1 µM; p53 level after pulse treatment (MV4-11 cells [5]; 2 hr treatment (200 nM), removal of inhibitor, 24 hr incubation): significant reduction; effect on oncogenic proteins FLT3 and STAT5 (MV4-11 cells [5]; AML FLT3-ITD mutant cell line MV4-11): degradation; cell death after pulse treatment (MV4-11 cells [6]): significant AML cell death; NO production, acute treatment [7]: only inhibited LPS induced NO production but not ATP driven ones; HDAC inhibitor potency, class I HDACs (class I HDACs): low-nanoM to picoM
